Test [1] addresses T1, human recombinant serotonin (5-Hydroxytryptamine) 5-HT2C receptor (Homo sapiens, UniProt P28335).
T1 construct: expressed in transfected cells; host or cells: CHO-K1
T1 sequence (P28335 33-458): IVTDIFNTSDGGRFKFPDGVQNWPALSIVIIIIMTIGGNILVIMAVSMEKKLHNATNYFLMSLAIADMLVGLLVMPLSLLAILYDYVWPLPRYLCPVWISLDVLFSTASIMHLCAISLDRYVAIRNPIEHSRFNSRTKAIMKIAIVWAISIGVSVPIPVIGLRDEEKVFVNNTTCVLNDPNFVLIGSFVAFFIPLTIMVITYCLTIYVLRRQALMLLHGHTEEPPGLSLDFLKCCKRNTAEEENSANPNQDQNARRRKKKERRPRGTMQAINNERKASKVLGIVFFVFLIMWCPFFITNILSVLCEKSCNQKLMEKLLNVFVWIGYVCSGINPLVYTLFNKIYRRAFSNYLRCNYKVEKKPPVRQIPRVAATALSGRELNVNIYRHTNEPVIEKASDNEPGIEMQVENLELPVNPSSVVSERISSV
As to the kind of experiment: Serotonin 5-HT2C radioligand binding ([3H]Mesulergine). The following applies: for inhibition at 0.1 µM / Serotonin (0.1 μM) 5-HT2C, percentage inhibition of ligand binding: compound at 0.1 μM; for inhibition at 0.1 µM: read-out: Serotonin (0.1 μM) 5-HT2C, percentage inhibition of ligand binding. On the procedure:
To evaluate in radioligand binding assays the activity of compounds of the invention, human recombinant serotonin (5-Hydroxytryptamine) 5-HT2C receptor expressed in Chinese hamster ovary (CHO)-K1 cells (Wolf, W. et al, J. Neurochem. 69:1449, 1997) in a modified Tris-HCl buffer (50 mM Tris-HCl, pH 7.4, 0.1% Ascorbic Acid, 10 μM Pargyline) was used. Compounds of the invention were incubated with 1 nM [^3H]Mesulergine for 60 min. at 25° C. Non-specific binding was estimated in the presence of 1 μM Mianserin. Receptor proteins were filtered and washed, the filters were then counted to determine [^3H]Mesulergine specifically bound. Compounds were screened at 1 μM or lower, using 1% DMSO as vehicle. Biochemical assay results are presented as the percent inhibition of specific binding in Table 4.

The target of test [2] is T2, human recombinant histamine H1 receptor (Homo sapiens, UniProt P35367).
T2 construct: expressed in transfected cells; host or cells: CHO-K1
T2 sequence (P35367 whole entry): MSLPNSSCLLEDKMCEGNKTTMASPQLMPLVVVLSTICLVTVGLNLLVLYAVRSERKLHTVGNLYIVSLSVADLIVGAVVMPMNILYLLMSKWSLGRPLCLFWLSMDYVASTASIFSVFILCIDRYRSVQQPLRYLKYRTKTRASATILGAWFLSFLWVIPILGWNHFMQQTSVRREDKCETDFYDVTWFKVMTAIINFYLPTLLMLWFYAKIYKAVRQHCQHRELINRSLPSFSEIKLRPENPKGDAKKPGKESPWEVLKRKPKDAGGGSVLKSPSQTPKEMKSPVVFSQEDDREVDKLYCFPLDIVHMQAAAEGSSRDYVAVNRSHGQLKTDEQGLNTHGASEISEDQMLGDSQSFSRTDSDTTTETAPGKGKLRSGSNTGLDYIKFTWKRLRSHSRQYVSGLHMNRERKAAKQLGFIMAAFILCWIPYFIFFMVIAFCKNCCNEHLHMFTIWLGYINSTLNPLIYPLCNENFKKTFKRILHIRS
Description: Histamine H1 radioligand binding ([3H]Pyrilamine). Conditions: 1.2 nM [3H]Pyrilamine; for inhibition at 0.1 µM / Histamine Binding (0.1 μM) H1, percentage inhibition: compound at 0.1 μM; for inhibition at 0.1 µM: read-out: Histamine Binding (0.1 μM) H1, percentage inhibition. On the procedure:
To evaluate in radioligand binding assays the activity of compounds of the invention, human recombinant histamine H1 receptor expressed in Chinese hamster ovary (CHO) K1 cells (De Backer, M. et al, Biochem. Biophys. Res. Comm. 197(3):1601, 1993) in a modified Tris-HCl buffer (50 mM Tris-HCl, pH 7.4, 2 mM MgCl2, 100 mM NaCl, 250 mM Sucrose) was used. Compounds of the invention were incubated with 1.2 nM [^3H]Pyrilamine for 180 min. at 25° C. Non-specific binding was estimated in the presence of 1 μM Pyrilamine. Receptor proteins were filtered and washed, the filters were then counted to determine [^3H]Pyrilamine specifically bound. Compounds were screened at 1 μM or lower, using 1% DMSO as vehicle. Biochemical assay results are presented as the percent inhibition of specific binding in Table 2.

Test [3] addresses T3, human recombinant serotonin (5-Hydroxytryptamine) 5-HT5A receptor (Homo sapiens, UniProt P47898).
T3 construct: expressed in transfected cells; host or cells: CHO-K1
Description: Serotonin 5-HT5A radioligand binding ([3H]LSD). The following applies: compound at 0.1 μM; for inhibition at 0.1 µM: read-out: Serotonin (0.1 μM) 5-HT5A, percentage inhibition of ligand binding. As for the experimental part:
To evaluate in radioligand binding assays the activity of compounds of the invention, human recombinant serotonin (5-Hydroxytryptamine) 5-HT5A receptor expressed in Chinese hamster ovary (CHO)-K1 cells (Rees, S. et al, FEBS Lett. 355:242, 1994) in a modified Tris-HCl buffer (50 mM Tris-HCl, pH 7.4, 10 mM MgCl2, 0.5 mM EDTA) was used. Compounds of the invention were incubated with 1.7 nM [^3H]Lysergic acid diethylamide (LSD) for 60 min. at 37° C. Non-specific binding was estimated in the presence of 100 μM Serotonin (5-HT). Receptor proteins were filtered and washed, the filters were counted to determine [^3H]LSD specifically bound. Compounds were screened at 1 μM or lower, using 1% DMSO as vehicle. Biochemical assay results are presented as the percent inhibition of specific binding in Table 4.

Test [4] addresses T4, human recombinant serotonin (5-Hydroxytryptamine) 5-HT2A receptor (Homo sapiens, UniProt P28223).
T4 construct: expressed in transfected cells; host or cells: CHO-K1
As to the kind of experiment: Serotonin 5-HT2A radioligand binding ([3H]Ketanserin). The following applies: for inhibition at 0.1 µM / Serotonin (0.1 μM) 5-HT2A, percentage inhibition of ligand binding: compound at 0.1 μM; for inhibition at 0.1 µM: read-out: Serotonin (0.1 μM) 5-HT2A, percentage inhibition of ligand binding. On the procedure: To evaluate in radioligand binding assays the activity of compounds of the invention, human recombinant serotonin (5-Hydroxytryptamine) 5-HT2A receptor expressed in Chinese hamster ovary (CHO)-K1 cells (Bonhaus, D. et al, Br. J. Pharmacol. 115:622, 1995; Saucier, C. et al, J. Neurochem. 68:1998, 1997) in a 50 mM Tris-HCl buffer, pH 7.4, was used. Compounds of the invention were incubated with 0.5 nM [^3H]Ketanserin for 60 min. at 25° C. Non-specific binding was estimated in the presence of 1 μM Mianserin. Receptor proteins were filtered and washed, the filters were then counted to determine [^3H]Ketanserin specifically bound. Compounds were screened at 1 μM or lower, using 1% DMSO as vehicle. Biochemical assay results are presented as the percent inhibition of specific binding in Table 4.

Test [5] concerns the target T5, human recombinant serotonin (5-Hydroxytryptamine) 5-HT6 receptor (Homo sapiens, UniProt P50406).
T5 construct: expressed in transfected cells; host or cells: HeLa
Description: Serotonin 5-HT6 radioligand binding ([3H]LSD). The following applies: for inhibition at 0.1 µM / Serotonin (0.1 μM) 5-HT6, percentage inhibition of ligand binding: compound at 0.1 μM; for inhibition at 0.1 µM: read-out: Serotonin (0.1 μM) 5-HT6, percentage inhibition of ligand binding. As for the experimental part: To evaluate in radioligand binding assays the activity of compounds of the invention, human recombinant serotonin (5-Hydroxytryptamine) 5-HT6 receptor expressed in human HeLa cells (Monsma, F. Jr. et al, Mol. Pharmacol. 43:320, 1993) in a modified Tris-HCl buffer (50 mM Tris-HCl, pH 7.4, 150 mM NaCl, 2 mM Ascorbic Acid, 0.001% BSA) was used. Compounds of the invention were incubated with 1.5 nM [3H]Lysergic acid diethylamide (LSD) for 120 min. at 37° C. Non-specific binding was estimated in the presence of 5 μM Serotonin (5-HT). Receptor proteins were filtered and washed, the filters were then counted to determine [3H]LSD specifically bound. Compounds were screened at 1 μM or lower, using 1% DMSO as vehicle. Biochemical assay results are presented as the percent inhibition of specific binding in Table 4.

A word on the inhibition: it is the change of the read-out against control, counted positive when it falls.

Each structure is given as a SMILES string.

T4 sequence (P28223 whole entry): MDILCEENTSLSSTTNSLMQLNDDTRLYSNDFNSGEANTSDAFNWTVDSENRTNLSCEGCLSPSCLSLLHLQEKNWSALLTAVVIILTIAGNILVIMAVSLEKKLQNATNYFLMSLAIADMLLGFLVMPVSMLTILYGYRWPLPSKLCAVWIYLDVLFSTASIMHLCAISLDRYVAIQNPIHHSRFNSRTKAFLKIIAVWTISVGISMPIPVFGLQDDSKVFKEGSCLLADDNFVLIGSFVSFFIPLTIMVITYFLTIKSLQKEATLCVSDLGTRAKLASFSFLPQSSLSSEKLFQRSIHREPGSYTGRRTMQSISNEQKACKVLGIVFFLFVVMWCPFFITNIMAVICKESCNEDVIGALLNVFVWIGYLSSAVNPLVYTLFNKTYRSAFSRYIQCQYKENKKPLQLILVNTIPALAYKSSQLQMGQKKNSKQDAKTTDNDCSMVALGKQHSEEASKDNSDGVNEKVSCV
T5 sequence (P50406 whole entry): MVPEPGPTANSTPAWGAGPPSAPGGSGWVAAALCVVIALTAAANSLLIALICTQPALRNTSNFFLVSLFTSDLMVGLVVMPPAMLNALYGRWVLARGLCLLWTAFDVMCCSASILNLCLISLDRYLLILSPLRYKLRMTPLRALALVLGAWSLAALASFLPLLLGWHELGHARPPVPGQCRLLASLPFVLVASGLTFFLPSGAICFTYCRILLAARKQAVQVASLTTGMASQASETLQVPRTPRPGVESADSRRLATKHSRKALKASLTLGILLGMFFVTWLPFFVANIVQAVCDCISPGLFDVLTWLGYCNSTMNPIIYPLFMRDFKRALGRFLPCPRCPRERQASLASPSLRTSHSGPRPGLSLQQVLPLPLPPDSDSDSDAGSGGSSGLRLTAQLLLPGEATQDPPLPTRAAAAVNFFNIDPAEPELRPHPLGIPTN
T3 sequence (P47898 whole entry): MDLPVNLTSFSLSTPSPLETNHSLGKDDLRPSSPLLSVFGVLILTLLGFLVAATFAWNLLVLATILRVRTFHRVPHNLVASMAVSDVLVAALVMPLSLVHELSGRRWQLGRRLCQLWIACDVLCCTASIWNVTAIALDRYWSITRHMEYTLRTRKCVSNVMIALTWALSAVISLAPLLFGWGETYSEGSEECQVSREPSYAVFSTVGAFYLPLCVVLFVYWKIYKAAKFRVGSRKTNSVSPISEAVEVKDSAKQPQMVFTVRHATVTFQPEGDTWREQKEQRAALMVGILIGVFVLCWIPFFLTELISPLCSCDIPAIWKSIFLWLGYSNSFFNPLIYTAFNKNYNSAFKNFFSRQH

In the case of `Cc1cc2c3c(c1)c1c(n3CC(C)(c3ccncc3)OC(C)C2)CCN(C)C1` (centres unmarked) [Compound 165], the inhibition at 0.1 µM is 14% in test [1]; 37% in test [2]; 16% in test [3]; 12% in test [4]; 10% in test [5].

Regarding `Cc1cc2c3c(c1)c1c(n3CC(c3ccc(F)cc3)C2)CCN(C)C1` (centres unmarked) [Compound 3], the inhibition at 0.1 µM was found to be 54% in test [1], 49% in test [2], 69% in test [4] and 80% in test [5]. Further, the inhibition at 1 µM in test [1] (compound at 1 μM, read-out: Serotonin (1 μM) 5-HT2C, percentage inhibition of ligand binding) worked out at 95%; in test [2] (compound at 1 μM, read-out: Histamine Binding (1 μM) H1, percentage inhibition), 83%; in test [4] (compound at 1 μM, read-out: Serotonin (1 μM) 5-HT2A, percentage inhibition of ligand binding), 94%; in test [5] (compound at 1 μM, read-out: Serotonin (1 μM) 5-HT6, percentage inhibition of ligand binding), 96%.

For the compound `Cc1cc2c3c(c1)c1c(n3CC(C)(c3ccc(C)nc3)OC(C)C2)CCN(C)C1` (centres unmarked) [Compound 160], the inhibition at 0.1 µM in test [1] is 7%; in test [2], 0%; in test [3] it was 2%; in test [4], -4%; in test [5], -10%.

For `Cc1cc2c3c(c1)c1c(n3C[C@](C)(c3ccncc3)O[C@H]2C)CCN(C)C1` [Compound 163], the inhibition at 0.1 µM is 5% in test [1]; 11% in test [2]; 10% in test [3]; 3% in test [4]; 8% in test [5].

In the case of `Cc1cc2c3c(c1)c1c(n3CC(C)(c3ccc(C)nc3)OC2C)CCN(C)C1` (centres unmarked) [Compound 164], the “Serotonin (0.1 μM) 5-HT2C, percentage inhibition of ligand binding” value in test [1] is given as 2%. In test [2], the “Histamine Binding (0.1 μM) H1, percentage inhibition” value was −5%. Besides, the “Serotonin (0.1 μM) 5-HT5A, percentage inhibition of ligand binding” value in test [3] is reported as −22%. Moreover, the “Serotonin (0.1 μM) 5-HT2A, percentage inhibition of ligand binding” value in test [4] worked out at 0%. The “Serotonin (0.1 μM) 5-HT6, percentage inhibition of ligand binding” value in test [5] was −9%.

On to `Cc1cc2c3c(c1)c1c(n3CC(C)(c3ccc(C)nc3)OC2C)CCN(C)C1` (centres unmarked) [Compound 161], for which the “Serotonin (0.1 μM) 5-HT2C, percentage inhibition of ligand binding” value in test [1] is −4%. In addition, in test [2], the “Histamine Binding (0.1 μM) H1, percentage inhibition” value is reported as 13%. The “Serotonin (0.1 μM) 5-HT5A, percentage inhibition of ligand binding” value in test [3] amounted to 4%. In addition, in test [4], the “Serotonin (0.1 μM) 5-HT2A, percentage inhibition of ligand binding” value is on record as −2%. Moreover, the “Serotonin (0.1 μM) 5-HT6, percentage inhibition of ligand binding” value in test [5] is on record as −8%.

`Cc1cc2c3c(c1)c1c(n3C[C@@](C)(c3ccncc3)O[C@H]2C)CCN(C)C1` [Compound 162]: the inhibition at 0.1 µM in test [1] was 6%; in test [2] it was 25%; in test [3], 16%; in test [4], 7%; in test [5], -8%.

The record behind these values is patent US9193728B2, “Fused tetracyclic pyrido [4,3-B] indole and pyrido [3,4-B] indole derivatives and methods of use” (Medivation Technologies, Inc., priority 2010, dated 2015).
